Laboratory results reported in patent US20180353483A1, “PHARMACEUTICAL COMPOSITIONS AND METHODS FOR INDOLEAMINE, 2, 3-DIOXYGENASE INHIBITION AND INDICATIONS THEREFOR” (Incyte Corporation, priority 2015, published 2018).
“And” between values parts separate entries of the source, which are not always exact repeats. Equal values may be shown once. Read-outs that look alike come from different tables or passages of the source.

Assay: Pharmacokinetics of Compound 1 in combination with MK-3475 in subjects with various cancers
Assay type: in vivo, human
Protocol: The subjects were not limited to a specific cancers and study include subjects with various cancers. […] One treatment cycle consisted of 21 days. […] Additional subjects were enrolled in a cohort to achieve the minimum of 3 evaluable subjects if dropouts or dose interruptions or reductions occur that result in a subject being non-evaluable for DLTs. […] An additional safety cohort was opened at 100 mg BID in parallel to 300 mg BID being tested. This may also be limited to subjects with melanoma, NSCLC, or specific cancer types from among those included in Phase 1. The RP2D was selected from the evaluated safety expansions.
If a dose was missed by more than 4 hours, that dose was skipped and was resumed at the scheduled time.
Pharmacokinetic samples were obtained at the visits of Cycle 1 Day 1, Cycle 1 Day 8 and Cycle 2 Day 1. […] The exact date and time of the PK blood draws were recorded in the eCRF along with the date and time of the last dose of study drug and details of the last meal preceding the blood draw.
The planned PK time points were used for preliminary PK analyses.

[1] = Cohort 1, 25 mg, first dose, geometric mean
[2] = Cohort 1, 25 mg, first dose, mean ± SD
[3] = Cohort 6, 300 mg BID, steady state C1D8, mean ± SD
[4] = Diagnosis DLBCL, steady state C1D8, individual values of 2 subjects
[5] = Diagnosis RCC, first dose, individual values of 2 subjects
[6] = by dose, 25 mg, first dose, geometric mean
[7] = by dose, 25 mg, first dose, mean ± SD
[8] = by dose, 50 mg BID, steady state C1D8, mean ± SD
[9] = by dose, 100 mg BID, steady state C1D8, mean ± SD
[10] = by dose, 100 mg, first dose, geometric mean

NS(=O)(=O)NCCNc1nonc1C(=NO)Nc1ccc(F)c(Br)c1 [Compound 1, 4-({2-[(aminosulfonyl)amino]ethyl}amino)-N-(3-bromo-4-fluorophenyl)-N′-hydroxy-1,2,5-oxadiazole-3-carboximidamide]
tmax (All diagnoses, first dose, median): 2.00 h | CL/F (All diagnoses, steady state C1D8, mean ± SD): 28.7 ± 10.3 L/h | tmax (All diagnoses, steady state C1D8, median): 2.00 h | CL/F (Cohort 1, 25 mg BID, steady state C1D8, mean ± SD): 46.2 ± 8.91 L/h | tmax (Cohort 1, 25 mg BID, steady state C1D8, median): 1.00 h | AUC(0-t) [1]: (0.650) μM * h | Cmax [1]: 199 nM | AUC(0-t) [2]: 0.711 ± 0.349 µM·h | Cmax [2]: 231 ± 151 nM | tmax (Cohort 1, 25 mg, first dose, median): 2.00 h | CL/F (Cohort 2, 50 mg BID, steady state C1D8, mean ± SD): 52.6 ± 22.4 L/h | tmax (Cohort 2, 50 mg BID, steady state C1D8, median): 2.00 h | Cmax (Cohort 2, 50 mg, first dose, geometric mean): 543 nM | tmax (Cohort 2, 50 mg, first dose, median): 2.00 h | Cmax (Cohort 3, 100 mg BID, steady state C1D8, geometric mean): 814 nM | CL/F (Cohort 3, 100 mg BID, steady state C1D8, mean ± SD): 67.4 ± 34.9 L/h | tmax (Cohort 3, 100 mg BID, steady state C1D8, median): 2.00 h | CL/F (Cohort 4 (MEL), 50 mg BID, steady state C1D8, mean ± SD): 78.3 ± 28.9 L/h | tmax (Cohort 4 (MEL), 50 mg, first dose, median): 1.00 h | Cmax (Cohort 5, 100 mg BID, steady state C1D8, geometric mean): 803 nM | CL/F (Cohort 5, 100 mg BID, steady state C1D8, mean ± SD): 69.6 ± 28.4 L/h | tmax (Cohort 5, 100 mg BID, steady state C1D8, median): 2.00 h | Cmax (Cohort 6, 300 mg BID, steady state C1D8, geometric mean): 2500 nM | CL/F [3]: 64.8 ± 23.2 L/h | Cmax [3]: 2710 ± 1220 nM | tmax (Cohort 6, 300 mg BID, steady state C1D8, median): 2.00 h | tmax (Cohort 6, 300 mg, first dose, median): 2.00 h | Cmax (Cohort 7, 300 mg BID, steady state C1D8, geometric mean): 2520 nM | CL/F (Cohort 7, 300 mg BID, steady state C1D8, mean ± SD): 65 ± 23.4 L/h | tmax (Cohort 7, 300 mg BID, steady state C1D8, median): 2.00 h | tmax (Cohort 7, 300 mg, first dose, median): 2.00 h | AUC(0-t) (Diagnosis DLBCL, first dose, mean ± SD): 2.29 ± 1.16 µM·h | AUC0-12 h [4]: 3.99 µM·h | CL/F [4]: 21.4 L/h and 28.6 L/h | Cmax [4]: 904 nM | tmax [4]: 4.0, 4.0 h | tmax (Diagnosis GU, first dose, median): 2.00 h | CL/F (Diagnosis GU, steady state C1D8, mean ± SD): 28.1 ± 10.0 L/h | tmax (Diagnosis GU, steady state C1D8, median): 2.00 h | Cmax (Diagnosis MEL, first dose, geometric mean): 809 nM | tmax (Diagnosis MEL, first dose, median): 2.00 h | CL/F (Diagnosis MEL, steady state C1D8, mean ± SD): 33.0 ± 10.0 L/h | tmax (Diagnosis MEL, steady state C1D8, median): 2.00 h | Cmax (Diagnosis NSCLC PD-L1 High, steady state C1D8, geometric mean): 815 nM | CL/F (Diagnosis NSCLC PD-L1 High, steady state C1D8, mean ± SD): 29.2 ± 10.4 L/h | Cmax (Diagnosis NSCLC PD-L1 Low/NE, first dose, mean ± SD): 914 ± 343 nM | tmax (Diagnosis NSCLC PD-L1 Low/NE, first dose, median): 1.00 h | CL/F (Diagnosis NSCLC PD-L1 Low/NE, steady state C1D8, mean ± SD): 26.9 ± 4.57 L/h | tmax (Diagnosis NSCLC PD-L1 Low/NE, steady state C1D8, median): 2.00 h | tmax (Diagnosis OC, first dose, median): 2.00 h | CL/F (Diagnosis OC, steady state C1D8, mean ± SD): 27.9 ± 8.82 L/h | tmax (Diagnosis OC, steady state C1D8, median): 2.00 h | AUC(0-t) [5]: 3.58 µM·h and 1.74 µM·h | Cmax [5]: 1350 nM and 418 nM | tmax [5]: 2.0 h | AUC(0-t) (Diagnosis SCCHN, first dose, mean ± SD): 2.32 ± 1.10 µM·h | tmax (Diagnosis SCCHN, first dose, median): 2.00 h | CL/F (Diagnosis SCCHN, steady state C1D8, mean ± SD): 33.3 ± 15.5 L/h | tmax (Diagnosis SCCHN, steady state C1D8, median): 2.00 h | tmax (Diagnosis TNBC, first dose, median): 2.00 h | CL/F (Diagnosis TNBC, steady state C1D8, mean ± SD): 25.7 ± 8.22 L/h | tmax (Diagnosis TNBC, steady state C1D8, median): 2.00 h | CL/F (Dose Reduction By C4D1 subjects (Table 13), steady state C1D8, mean ± SD): 28.4 ± 11.1 L/h | tmax (Dose Reduction By C4D1 subjects (Table 13), steady state C1D8, median): 2.00 h | CL/F (by dose, 25 mg BID, steady state C1D8, mean ± SD): 46.2 ± 8.91 L/h | tmax (by dose, 25 mg BID, steady state C1D8, median): 1.00 h | AUC(0-t) [6]: (0.650) μM * h | Cmax [6]: 199 nM | AUC(0-t) [7]: 0.711 ± 0.349 µM·h | Cmax [7]: 231 ± 151 nM | tmax (by dose, 25 mg, first dose, median): 2.00 h | Cmax (by dose, 50 mg BID, steady state C1D8, geometric mean): 452 nM | CL/F [8]: 68.8 ± 29.0 L/h | Cmax [8]: 502 ± 237 nM | tmax (by dose, 50 mg BID, steady state C1D8, median): 2.00 h | Cmax (by dose, 50 mg, first dose, geometric mean): 500 nM | Cmax (by dose, 50 mg, first dose, mean ± SD): 537 ± 217 nM | tmax (by dose, 50 mg, first dose, median): 2.00 h | Cmax (by dose, 100 mg BID, steady state C1D8, geometric mean): 806 nM | CL/F [9]: 69.1 ± 28.9 L/h | Cmax [9]: 917 ± 424 nM | tmax (by dose, 100 mg BID, steady state C1D8, median): 2.00 h | AUC(0-t) [10]: (2.32) μM * h | Cmax [10]: 719 nM | Cmax (by dose, 100 mg, first dose, mean ± SD): 803 ± 378 nM | tmax (by dose, 100 mg, first dose, median): 2.00 h | Cmax (by dose, 300 mg BID, steady state C1D8, geometric mean): 2510 nM | CL/F (by dose, 300 mg BID, steady state C1D8, mean ± SD): 64.9 ± 22.7 L/h | tmax (by dose, 300 mg BID, steady state C1D8, median): 2.00 h | Cmax (by dose, 300 mg, first dose, geometric mean): 2020 nM | Cmax (by dose, 300 mg, first dose, mean ± SD): 2290 ± 1230 nM | tmax (by dose, 300 mg, first dose, median): 2.00 h | Cmax (human, plasma, oral, 25 mg, Cohort 1, 25 mg BID, steady state C1D8, geometric mean): 276 nM | AUC(0-t) (human, plasma, oral, 25 mg, Cohort 1, 25 mg BID, steady state C1D8, geometric mean, read-out: AUC0-12 h (converted)): 1.25 µM·h | Cmax (human, plasma, oral, 25 mg, Cohort 1, 25 mg BID, steady state C1D8, mean ± SD): 307 ± 150 nM | AUC(0-t) (human, plasma, oral, 25 mg, Cohort 1, 25 mg BID, steady state C1D8, mean ± SD, read-out: AUC0-12 h (converted)): 1.27 ± 0.23 µM·h | Cmax (human, plasma, oral, 25 mg, by dose, 25 mg BID, steady state C1D8, geometric mean): 276 nM | AUC(0-t) (human, plasma, oral, 25 mg, by dose, 25 mg BID, steady state C1D8, geometric mean, read-out: AUC0-12 h (converted)): 1.25 µM·h | Cmax (human, plasma, oral, 25 mg, by dose, 25 mg BID, steady state C1D8, mean ± SD): 307 ± 150 nM | AUC(0-t) (human, plasma, oral, 25 mg, by dose, 25 mg BID, steady state C1D8, mean ± SD, read-out: AUC0-12 h (converted)): 1.27 ± 0.23 µM·h | Cmax (human, plasma, oral, 50 mg, Cohort 2, 50 mg BID, steady state C1D8, geometric mean): 550 nM | AUC(0-t) (human, plasma, oral, 50 mg, Cohort 2, 50 mg BID, steady state C1D8, geometric mean, read-out: AUC0-12 h (converted)): 2.34 µM·h | Cmax (human, plasma, oral, 50 mg, Cohort 2, 50 mg BID, steady state C1D8, mean ± SD): 603 ± 227 nM | AUC(0-t) (human, plasma, oral, 50 mg, Cohort 2, 50 mg BID, steady state C1D8, mean ± SD, read-out: AUC0-12 h (converted)): 2.53 ± 1.02 µM·h | AUC(0-t) (human, plasma, oral, 50 mg, Cohort 2, 50 mg, first dose, geometric mean, read-out: AUC0-t): 1.53 µM·h | Cmax (human, plasma, oral, 50 mg, Cohort 2, 50 mg, first dose, mean ± SD): 574 ± 216 nM | AUC(0-t) (human, plasma, oral, 50 mg, Cohort 2, 50 mg, first dose, mean ± SD, read-out: AUC0-t): 1.6 ± 0.507 µM·h | Cmax (human, plasma, oral, 50 mg, Cohort 4 (MEL), 50 mg BID, steady state C1D8, geometric mean): 403 nM | AUC(0-t) (human, plasma, oral, 50 mg, Cohort 4 (MEL), 50 mg BID, steady state C1D8, geometric mean, read-out: AUC0-12 h (converted)): 1.58 µM·h | Cmax (human, plasma, oral, 50 mg, Cohort 4 (MEL), 50 mg BID, steady state C1D8, mean ± SD): 442 ± 232 nM | AUC(0-t) (human, plasma, oral, 50 mg, Cohort 4 (MEL), 50 mg BID, steady state C1D8, mean ± SD, read-out: AUC0-12 h (converted)): 1.77 ± 1.12 µM·h | tmax (human, plasma, oral, 50 mg, Cohort 4 (MEL), 50 mg BID, steady state C1D8, median, read-out: tmax): 1.5 h | AUC(0-t) (human, plasma, oral, 50 mg, Cohort 4 (MEL), 50 mg, first dose, geometric mean, read-out: AUC0-t): 1.2 µM·h | AUC(0-t) (human, plasma, oral, 50 mg, Cohort 4 (MEL), 50 mg, first dose, mean ± SD, read-out: AUC0-t): 1.32 ± 0.698 µM·h | Cmax (human, plasma, oral, 50 mg, Cohort 4 (MEL), first dose, geometric mean): 474 nM | Cmax (human, plasma, oral, 50 mg, Cohort 4 (MEL), first dose, mean ± SD): 512 ± 224 nM | AUC(0-t) (human, plasma, oral, 50 mg, by dose, 50 mg BID, steady state C1D8, geometric mean, read-out: AUC0-12 h (converted)): 1.83 µM·h | AUC(0-t) (human, plasma, oral, 50 mg, by dose, 50 mg BID, steady state C1D8, mean ± SD, read-out: AUC0-12 h (converted)): 2.05 ± 1.12 µM·h | AUC(0-t) (human, plasma, oral, 50 mg, by dose, 50 mg, first dose, geometric mean, read-out: AUC0-t): 1.33 µM·h | AUC(0-t) (human, plasma, oral, 50 mg, by dose, 50 mg, first dose, mean ± SD, read-out: AUC0-t): 1.43 ± 0.63 µM·h | Cmax (human, plasma, oral, 50 mg, subjects with dose reduction before C4D1, 50 mg BID, C1D8, geometric mean): 519 nM | Cmax (human, plasma, oral, 50 mg, subjects with dose reduction before C4D1, 50 mg BID, C1D8, mean ± SD): 557 ± 260 nM | Cmax (human, plasma, oral, 100 mg BID, All diagnoses, steady state C1D8, geometric mean): 1010 nM
